Data reported in US20260139017A1, “COMPOSITIONS AND METHODS USING REELIN IN ALZHEIMER'S DISEASE” (The General Hospital Corporation, priority 2022, published 2026).
“Also recorded” adds a separate entry of the source.

Tests used:
pDAB1 (Tyr232) = experiment: HRECs treated 5 minutes with HEK 293T-derived mini-RELN media, pDAB1 western blot; format: cell-based, human; conditions: HEK 293T-derived media 1:1, 1:4, 1:14, 5 minutes
Method: The effect of in vitro treatment with RELN or miniRELN protein was also evaluated. HRECs were cultured in EBM-2 media enriched with EGM-2 Single Quots (Lonza) at 37° C. and 5% CO2 and experimentally tested at passage 7. 24 h prior experiment, cells were plated on a 6-well plate at 500,000 cells/mL. Two hours before the experiment, the cells were washed with PBS to remove residual growth media and then incubated with a starving media including EBM-2, 1% GlutaMax+0,2% Normicin. Treatments was conducted using media derived from HEK 293T cells transiently transfected for 24 h with different mini-RELN constructs in the presence of Lipofectamine 2000. […] Total protein levels were quantified via BCA assay. […] We detected pDAB1 (Tyr232; 1:1000, rabbit, #3325 Cell signaling), and Beta actin (1:5000, mouse, #66009-1-Ig, Proteintech. Antibodies were diluted using Intercept® (TBS) Blocking Buffer and incubated overnight at 4C under gentle shaking. Prior secondary antibody incubation, membranes were washes 2 times using TBS-T for 10 minutes. As secondary antibodies we used IR Dye 800n CW Goat-anti-Rabbit (925-32211, Licor) and IR Dye 680 CW Goat-anti-Mouse (925-68070, Licor) both diluted 1:10000 in blocking buffer for 1 h at room temperature under gentle shaking. Membranes were washed three times with TBS-T prior IR detection using Odyssey imager. […]

[1] = tested on: human retinal endothelial cells; experiment: GFP mRNA cargo uptake with CTR peptide in retinal endothelial cells; format: cell-based; conditions: 5 μg mRNA mixed with peptide, 24 hours
Method: To evaluate this, HMRECs were cultured in a 24 well plate until 80% confluency complete endothelial growth media 2 (EGM-2, Lonza, Switzerland). For the treatments, 5 μg of mRNA were added to all the formulations. We prepared mRNA/peptide conjugates by mixing each amount of peptide ([…]) (SEQ ID NO:59) and mRNA prior to dilution in EGM-2. HMRECs were cultured with treatment media for 24 hours followed by fluorescence measurements in a microplate reader Synergy H1 (Biotek, VT) upon exciting at 482 nm and recording emission at 520 nm.

APOER2 = target: T1, APOER2 (Homo sapiens, UniProt Q14114); experiment: ELISA cell-free binding of RELN variants to ApoEr2
T1 construct: purchased OnGene (so in the source)
T1 sequence (Q14114 33-963): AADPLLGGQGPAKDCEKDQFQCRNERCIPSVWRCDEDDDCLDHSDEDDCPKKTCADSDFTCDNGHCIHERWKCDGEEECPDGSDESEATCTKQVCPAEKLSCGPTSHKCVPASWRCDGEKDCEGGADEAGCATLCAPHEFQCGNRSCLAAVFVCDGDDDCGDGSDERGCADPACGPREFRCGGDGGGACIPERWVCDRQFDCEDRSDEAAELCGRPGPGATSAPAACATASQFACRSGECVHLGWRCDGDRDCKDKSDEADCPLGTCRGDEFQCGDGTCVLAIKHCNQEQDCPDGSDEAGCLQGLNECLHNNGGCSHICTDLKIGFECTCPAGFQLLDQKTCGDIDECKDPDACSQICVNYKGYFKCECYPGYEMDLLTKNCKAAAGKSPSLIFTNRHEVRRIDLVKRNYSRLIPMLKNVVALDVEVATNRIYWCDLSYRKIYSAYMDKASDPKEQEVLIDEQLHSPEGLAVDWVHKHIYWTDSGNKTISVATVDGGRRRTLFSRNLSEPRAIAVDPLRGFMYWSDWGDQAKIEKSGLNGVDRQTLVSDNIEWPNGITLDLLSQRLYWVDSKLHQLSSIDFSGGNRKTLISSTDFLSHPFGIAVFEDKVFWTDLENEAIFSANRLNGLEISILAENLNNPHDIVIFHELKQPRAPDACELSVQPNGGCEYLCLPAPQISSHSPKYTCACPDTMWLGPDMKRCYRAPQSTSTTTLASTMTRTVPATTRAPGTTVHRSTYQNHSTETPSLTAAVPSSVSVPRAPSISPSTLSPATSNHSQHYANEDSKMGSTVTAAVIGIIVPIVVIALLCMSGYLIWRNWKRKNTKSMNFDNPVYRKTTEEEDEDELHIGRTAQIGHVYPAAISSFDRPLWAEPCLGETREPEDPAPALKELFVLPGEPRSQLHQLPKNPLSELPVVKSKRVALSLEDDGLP
Method: (§1) Enzyme-linked immunosorbent assay (ELISA) was used to quantify changes in binding of RELN variants (media-derived full-length or CTR-RELN) to either VLDLr or ApoEr2 following an optimized version of a previously published protocol (6). Briefly, ELISA strips (DY008, R&D Systems) were coated with one ng/μL (100 μL/well) of VLDLr (8444-VL, R&D) or ApoEr2 (TP320903, OnGene) receptors diluted in 25 mM Tris HCl, 140 mM NaCl, […], two mM CaCl2), pH 7.4 (TBS-C buffer). After 18 h at four ° C. incubation, plates were blocked one h with three % BSA (22070008-6, Bioworld), 0.05% Tween-20 (Sigma Aldrich) TBS-C buffer. We assessed binding via incubation with 100 μL/well of serial dilutions of recombinant RELN protein (Ser1221-Gln2666, 8546-MR-050, R&D) or RELN variants in TBS-C buffer for one hour at room temperature. For detection, we used goat anti-mouse RELN primary antibody (LS-C793521-100, LS-Bio, 1:2,000, 100 μL/well) as primary antibody for one h at R.T. and (1:10,000; 100 μL/well, donkey anti-goat IgG H&L, HRP, ab6885, Abcam) as secondary antibody for 30 min. at R.T. Between each of the previous steps, plates were washed four times with TBS-C buffer (200 μL/well). Plates were washed three times prior to initiating the colorimetric reaction (DY008, R&D Systems). Stop solution (50 μL/well, DY008, R&D Systems) was added upon five min. incubation and the absorbance of the samples was measured at 450 nm using the Synergy 2 microplate reader (BioTek Instruments). Processing and analysis of the data was done using Gen5 1.11 software and GraphPad Prism, respectively.

Aβ42 = target: T2, Aβ42 (Homo sapiens, UniProt P05067); experiment: Thioflavin T (ThT) Aβ aggregation assay; format: biochemical; conditions: Aβ42 55 μM, 10 μM peptide, vs Aβ alone
T2 construct: SensoLyte ThT O-Amyloid (1-42) Aggregation kit
Method: Therefore, the ThT assay can be used to quantify AB aggregation using previously developed methods (40).
We incubated CTR-RELN with Aβ and monitored aggregation using a ThioflavinT fluorescence assay normalized to the maximum ThT emission of Aβ only. We also assayed Aβ in the presence of morin, a known inhibitor (41), as a […]. Long and short WT and H3447R RELN CTR peptides were included to better understand the potential role of the H3447R mutation in amyloid pathology (FIGS. 14 and 15. Negative controls included long and short RELN CTR peptides with neutrally charged AAs (histidines) in place of basic AAs in the alpha- and beta-GAG binding sites.
A Thioflavin T (ThT) assay was also performed using synthetic Reelin peptides to assess the differential effects of these proteins on Aβ42 aggregation in vitro using Thioflavin T (SensoLyte ThT O-Amyloid (1-42) Aggregation kit, catalog no. ΔS-72214). Aβ42 was added to a final concentration of 55 μM in solutions of 10 μM of Reelin peptide variants in a transparent, no-binding 96-well plate. Samples were then mixed with 2 mM Thioflavin T dye and fluorescence was read at excitation wavelength/emission wavelength (Ex/Em)=440/484 nm at intermittent time intervals over 2 h. The plate was kept at 37° C. with 15 s shaking between reads. […] In general, it appears that the RELN Cterm domain is highly unstructured. […] If the mini-RELN includes the C-term domain only without a receptor binding domain then the protection will not involve signaling, but will still involve direct interactions with tau. If the mini-RELN includes the C-term domain and the receptor binding domain, it will have at least two protective mechanisms, namely RELN signaling and direct interactions with tau.

[2] = Heparin-sepharose affinity column chromatography, NaCl step gradient; format: binding
Method: We tested changes in binding to heparin of RELN variants chromatographically using an optimized version of a protocol previously published by our laboratory (1). Briefly, after equilibration of the heparin column (BioVision 6554-1) at R.T., columns were washed with five volumes of degassed 20 mM TRIS-HCl buffer (pH 7.5). Recombinant C-terminus RELN peptides were produced and purified by Innovagen (Sweden): (WT) […](SEQ ID NO:56), and (H3447R) […](SEQ ID NO:53). One mL of 50 μg/mL peptide (H3447 or WT, and H3447R) was recycled through the column five times and the last flow through collected for further analysis. The column was washed five times with the same buffer and the protein eluted using a 0.05 M step gradient of NaCl in 20 mM Tris-HCl (0-1M, one mL per fraction). To ensure the complete release of the protein, the column was washed with five M NaCl 20 mM Tris-HCl. Three independent experiments were conducted for C-terminus RELN WT and H3447R. All eluted fractions were analyzed spectroscopically by reading the absorbance at 280 nm using Nanodrop 2000 Spectrophotometer. Blank corrected fractions were subsequently analyzed using GraphPad Prism 8.
To assess Reelin-heparin binding affinity, Reelin variants were run on a heparin column with steps of 0.05M in a range of 0.05-1M NaCl over 20 1 mL column volumes in 20 mM Tris HCl, as described in Arboleda et. al 2019 (2). Sample fractions were eluted at an increasing NaCl step size to determine the ionic strength needed to disrupt the binding between Reelin and heparin. Therefore, the stronger the interaction, the higher concentration of salt would be needed to disrupt the bond.

VLDLr = target: T3, VLDLr (Homo sapiens, UniProt P98155); experiment: ELISA cell-free binding of RELN variants to VLDLr
T3 construct: purchased R&D 8444-VL
Method: as §1

[3] = Isothermal titration calorimetry (ITC) of CTR-RELN with heparin; format: binding; conditions: titrated with 5 μM heparin, vs WT

T2 sequence (P05067 672-713 limits assumed): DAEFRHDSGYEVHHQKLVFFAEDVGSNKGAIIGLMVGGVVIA

IL2signalpeptide-6XHistag(SEQ ID NO: 62)-hReelin(AALeu1220-Ile2660) C-term-REELIN H3447R [225SU]
pDAB1 / Dab1 signaling activation (pDAB1 (Tyr232)): efficacy

RKQNYMMNFSRQHGLRHFYNRRRR [WT short]
GFP expression from mRNA cargo [1]: increase in expression

RKQNYMMNFSRQHGLRHFYNRRRRSLRRYP [CTR-RELN WT]
binding to APOER2 (APOER2): unable to bind directly
Aβ aggregation (ThT fluorescence) (Aβ42; listed as Cterm domain of RELN): reduced amyloid aggregation
Aβ aggregation (ThT fluorescence) (Aβ42; listed as RELN CTR): decreased amyloid aggregation; also recorded: significantly reduced amyloid aggregation; also recorded: reduces Aβ aggregation
NaCl concentration of peak eluted fraction from heparin column ([2]; 0.05 M NaCl step gradient in 20 mM Tris HCl, UV 280 nm): 0.55 M NaCl
binding to and release from heparin column ([2]; affinity chromatography, NaCl gradient): bound to heparin
binding to VLDLr (VLDLr): unable to bind directly

RKQNYMMNFSRQHGLRRFYNRRRR [H3447R short]
thermodynamics of heparin interaction [3]: more negative Gibbs free energy
